# Source: patent publication US20130310256A1, “HERBICIDAL COMPOSITIONS COMPRISING 4-AMINO-3-CHLORO-5-FLUORO-6-(4-CHLORO-2-FLUORO-3-METHOXYPHENYL) PYRIDINE-2-CARBOXYLIC ACID OR A DERIVATIVE THEREOF AND VLCFA AND LIPID SYNTHESIS INHIBITING HERBICIDES” (DOW AGROSCIENCES LLC, priority 2008, published 2013)
# Columns and labels:
# ECHCO = assay: Example I: postemergence foliar-applied weed control, greenhouse; type: in vivo, Echinochloa colona (L.) Link (junglerice); conditions: for Visual Weed Control Obs: 20 DAA
# Text: (§1) Seeds or nutlets of the desired test plant species were planted in a soil matrix prepared by mixing a loam or sandy loam soil (e.g., 28.6 percent silt, 18.8 percent clay, and 52.6 percent sand, with a pH of about 5.8 and an organic matter content of about 1.8 percent) and calcareous grit in an 80 to 20 ratio. The soil matrix was contained in plastic pots with a volume of 1 quart and a surface area of 83.6 square centimeters (cm^2). When required to ensure good germination and healthy plants, a fungicide treatment and/or other chemical or physical treatment was applied. The plants were grown for 8-22 days in a greenhouse with an approximate 14 hr photoperiod which was maintained at about 29° C. during the day and 26° C. during the night. Nutrients (Peters Excel® 15-5-15 5-Ca 2-Mg and iron chelate) were applied in the irrigation solution as needed and water was added on a regular basis. Supplemental lighting was provided with overhead metal halide 1000-Watt lamps as necessary. The plants were employed for testing when they reached the first through fourth true leaf stage.
# (§2) Treatments consisted of the acid or esters of 4-amino-3-chloro-5-fluoro-6-(4-chloro-2-fluoro-3-methoxy-phenyl)pyridine-2-carboxylic acid (Compound A), each formulated as an SC (suspension concentrate), and various herbicidal components alone and in combination. Forms of compound A were applied on an acid equivalent basis.
# (§3) Other herbicidal components were applied on an active ingredient basis and included very long chain fatty acid (VLCFA) synthesis-inhibiting and fatty acid/lipid synthesis-inhibiting herbicides acetochlor (technical grade material), acetochlor+dichlormid formulated as Topnotch®, pretilachlor (technical grade material), butachlor formulated as Butachlor EC, fentrazamide formulated as Fentrazamide EC, thiobencarb formulated as Bolero® 8EC, cafenstrole formulated as Himeadow® WP or Lapost® Flowable, benfuresate formulated as Full Shot®, dimethenamid-P formulated as Outlook®, indanofan (technical grade material), flufenacet formulated as Define® DF, mefenacet (technical grade material), S-metolachlor formulated as Dual® II Magnum, pethoxamid formulated as Successor® 600, and pyroxasulfone (technical grade material).
# (§4) Treatment requirements were calculated based upon the rates being tested, the concentration of active ingredient or acid equivalent in the formulation, and a 12 mL application volume at a rate of 187 L/ha.
# (§5) For treatments comprised of formulated compounds, measured amounts of compounds were placed individually in 25 mL glass vials and diluted in a volume of 1.25% (v/v) Agri-Dex® crop oil concentrated to obtain 12× stock solutions. […] Application solutions were prepared by adding an appropriate amount of each stock solution (e.g., 1 mL) and diluted to the appropriate final concentrations with the addition of 10 mL of an aqueous mixture of 1.25% (v/v) crop oil concentrate so that the final spray solutions contained 1.25+/−0.05% (v/v) crop oil concentrate.
# (§6) For treatments comprised of technical compounds, weighed amounts can be placed individually in 25 mL glass vials and dissolved in a volume of 97:3 v/v acetone/DMSO to obtain 12× stock solutions. […] Application solutions can be prepared by adding an appropriate amount of each stock solution (e.g., 1 mL) and diluted to the appropriate final concentrations with the addition of 10 mL of an aqueous mixture of 1.5% (v/v) crop oil concentrate so that the final spray solutions contain 1.25% (v/v) crop oil concentrate. When technical materials are used, the concentrated stock solutions can be added to the spray solutions so that the final acetone and DMSO concentrations of the application solutions are […], respectively. […]
# XANST = assay: Example IV: pre-emergence soil-applied weed control, greenhouse; type: in vivo, Xanthium strumarium L. (common cocklebur); conditions: 29 DAA
# Text: Seeds or nutlets of the desired test plant species were planted in a soil matrix prepared by mixing a loam soil (32 percent silt, 23 percent clay, and 45 percent sand, with a pH of about 6.5 and an organic matter content of about 1.9 percent) and calcareous grit in an 80 to 20 ratio. The soil matrix was contained in plastic pots with a volume of 1 quart and a surface area of 83.6 square centimeters (cm^2).
# as §2, with “benzyl ester” for “acid or esters”, “(compound A)” for “(Compound A), each”, “concentrate)” for “concentrate),”
# Other herbicidal components were applied on an active ingredient basis and included very long chain fatty acid (VLCFA) synthesis-inhibiting and fatty acid/lipid synthesis-inhibiting herbicides alachlor (technical grade material), dimethenamid-P formulated as Outlook®, and S-metolachlor formulated as Dual® II Magnum.
# as §4
# as §5, with “oil concentrate (COC)” for “oil concentrated”, “(v/v) COC” for “(v/v) crop oil concentrate”, “contained 1.25%” for “contained 1.25+/−0.05%”, “(v/v) COC.” for “(v/v) crop oil concentrate.”
# For treatments comprised of technical compounds, weighed amounts can be placed individually in 25 mL glass vials and dissolved in a volume of 97:3 (v/v) acetone/DMSO to obtain 12× stock solutions. […] Application solutions can be prepared by adding an appropriate amount of each stock solution (e.g., 1 mL) and diluted to the appropriate final concentrations with the addition of 10 mL of an aqueous mixture of 1.5% (v/v) COC so that the final spray solutions contain 1.25% (v/v) COC. […]
# For treatments comprised of formulated and technical compounds, weighed amounts of the technical materials were placed individually in 25 mL glass vials and dissolved in a volume of 97:3 (v/v) acetone/DMSO to obtain 12× stock solutions, and measured amounts of the formulated compounds were placed individually in 25 mL glass vials and diluted in a volume of 1.5% (v/v) COC or water to obtain 12× stock solutions. […]
# CYPES = assay: Example I: postemergence foliar-applied weed control, greenhouse; type: in vivo, Cyperus esculentus L. (yellow nutsedge); conditions: 275 gai/ha
# DIGSA = assay: as above; type: in vivo, Digitaria sanguinalis (L.) Scop. (large crabgrass); conditions: 20 DAA; 560 gai/ha
# Text: as §1, §2, §3, §4, §5, §6
# CYPIR = assay: as above; type: in vivo, Cyperus iria L. (rice flatsedge); conditions: 20 DAA
# Text: as §1, §2, §3, §4, §5, §6
# ISCRU = assay: as above; type: in vivo, Ischaemum rugosum Salisb. (saramollagrass); conditions: 21 DAA
# Text: as §1, §2, §3, §4
# For treatments comprised of formulated compounds, measured amounts of compounds were placed individually in 25 mL glass vials and diluted in a volume of 1.25% (v/v) Agri-Dex® crop oil concentrated to obtain 12× stock solutions. […]
# ECHOR = assay: Example II: in-water applied weed control, transplanted paddy rice, greenhouse; type: in vivo, Echinochloa oryzoides (Ard.) Fritsch (early watergrass)
# Experimental: (§7) Weed seeds or nutlets of the desired test plant species were planted in puddled soil (mud) prepared by mixing a shredded, non-sterilized mineral soil (50.5 percent silt, 25.5 percent clay, and 24 percent sand, with a pH of about 7.6 and an organic matter content of about 2.9 percent) and water at a 1:1 volumetric ratio. The prepared mud was dispensed in 365 mL aliquots into 16-ounce (oz.) non-perforated plastic pots with a surface area of 86.59 square centimeters (cm^2) leaving a headspace of 3 centimeters (cm) in each pot. Mud was allowed to dry overnight prior to planting or transplanting. Rice seeds were planted in Sun Gro MetroMix® 306 planting mixture, which typically has a pH of 6.0 to 6.8 and an organic matter content of about 30 percent, in plastic plug trays. Seedlings at the second or third leaf stage of growth were transplanted into 840 mL of mud contained in 32-oz. non-perforated plastic pots with a surface area of 86.59 cm^2 4 days prior to herbicide application. The paddy was created by filling the headspace of the pots with 2.5 to 3 cm of water. When required to ensure good germination and healthy plants, a fungicide treatment and/or other chemical or physical treatment was applied. The plants were grown for 4-22 days in a greenhouse with an approximate 14 hr photoperiod which was maintained at about 29′C during the day and 26° C. during the night. Nutrients were added as Osmocote® (19:6:12, N:P:K+ minor nutrients) at 2 g per 16-oz. pot and 4 g per 32-oz. pot. Water was added on a regular basis to maintain the paddy flood, and supplemental lighting was provided with overhead metal halide 1000-Watt lamps as necessary. The plants were employed for testing when they reached the first through fourth true leaf stage.
# as §2, with “(compound A)” for “(Compound A),”, “concentrate)” for “concentrate),”
# (§8) The herbicidal components were applied on an active ingredient basis and included very long chain fatty acid (VLCFA) synthesis-inhibiting and fatty acid/lipid synthesis-inhibiting herbicides acetochlor (technical grade material), acetochlor+dichlormid formulateded as Topnotch®, pretilachlor (technical grade material), butachlor formulated as Butachlor EC, fentrazamide formulated as Fentrazamide EC, thiobencarb formulated as Bolero® 8EC, cafenstrole formulated as Himeadow® WP or Lapost® Flowable, benfuresate formulated as Full Shot®, anilofos (technical grade material), mefenacet (technical grade material), molinate (technical grade material), and thenylchlor (technical grade material).
# (§9) Treatment requirements for each compound or herbicidal component were calculated based upon the rates being tested, the concentration of active ingredient or acid equivalent in the formulation, an application volume of 2 mL per component per pot, and an application area of 86.59 cm^2 per pot.
# (§10) For formulated compounds, a measured amount was placed in an individual 100 or 200 mL glass vial and was dissolved in a volume of 1.25% (v/v) Agri-Dex® crop oil concentrate to obtain application solutions.
# (§11) For technical grade compounds, a weighed amount was placed in an individual 100 to 200 mL glass vial and was dissolved in a volume of acetone to obtain concentrated stock solutions. […] The concentrated stock solutions obtained were diluted with an equivalent volume of an aqueous mixture containing 2.5% (v/v) crop oil concentrate so that the final application solutions contained 1.25% (v/v) crop oil concentrate.
# (§12) Applications were made by injecting with a pipetter appropriate amounts of the application solutions, individually and sequentially, into the aqueous layer of the paddy. Control plants were treated in the same manner with the solvent blank. […]
# CYPRO = assay: as above; type: in vivo, Cyperus rotundus L. (purple nutsedge); conditions: 20 DAA
# Experimental: as §7
# as §2, with “(compound A)” for “(Compound A),”, “concentrate)” for “concentrate),”
# as §8, §9, §10, §11, §12
SMILES,"Visual Weed Control (%) - 20 DAA ECHCO Obs (ECHCO; 275 gai/ha, foliar) [%]",Visual Weed Control XANST Obs (XANST; 410 gai/ha) [%],Visual Weed Control XANST Obs (XANST; 820 gai/ha) [%],Visual Weed Control XANST Obs (XANST; 1640 gai/ha) [%],Visual Weed Control (%) - 20 DAA CYPES Obs (CYPES) [%],Visual Weed Control Obs (DIGSA) [%],Visual Weed Control Obs (ECHCO; 560 gai/ha) [%],Visual Weed Control Obs (ECHCO; 1120 gai/ha) [%],Visual Weed Control Obs (CYPIR; 560 gai/ha) [%],Visual Weed Control Obs (CYPIR; 1120 gai/ha) [%],Visual Weed Control Obs (CYPIR; 2240 gai/ha) [%],Visual Weed Control Obs (ISCRU; 1120 gai/ha) [%],Visual Weed Control Obs (ISCRU; 2240 gai/ha) [%],Visual Weed Control (%) - 20 DAA ECHOR Obs (ECHOR; 1120 gai/ha) [%],"pest or weed control at 1120 g/ha (ECHOR; Echinochloa oryzoides, 480 h, 1120 gai/ha, 20 DAA, read-out: Visual Weed Control ECHOR Obs) [%]","pest or weed control at 2240 g/ha (ECHOR; Echinochloa oryzoides, 480 h, 2240 gai/ha, 20 DAA, read-out: Visual Weed Control ECHOR Obs) [%]",Visual Weed Control CYPRO Obs (CYPRO; 1120 gai/ha) [%],Visual Weed Control CYPRO Obs (CYPRO; 2240 gai/ha) [%]
"COC[C@H](C)N(C(=O)CCl)c1c(C)csc1C [Dimethenamid-P, (S) 2-chloro-N-(2,4-dimethyl-3-thienyl)-N-(2-methoxy-1-methylethyl)acetamide]",70,23,30,50,0,–,–,–,–,–,–,–,–,–,–,–,–,–
"CCN(CC)C(=O)SCc1ccc(Cl)cc1 [Thiobencarb, S-[(4-chlorophenyl)methyl]N,N-diethylcarbamothioate]",–,–,–,–,–,20,45,40,0,0,0,0,0,60,60,90,0,0
